Laboratory results from patent US6706663B2, “Herbicidal 3-heterocyclic substituted benzisothiazole and benzisoxazole compounds” (Wyeth, priority 2000, dated 2004).

How the values were obtained:
GALAP (Galium aparine) [1] = experiment: Preemergence herbicidal evaluation; format: in vivo; settings: preemergence, rated 4-5 weeks after treatment
Procedure, shortened: (§1)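 Visual 0–9 rating versus control (stand, vigor, malformation, size, chlorosis, overall appearance), scored four to five weeks post-treatment. Preemergence spray of aqueous acetone solution onto freshly seeded soil cups; plants grown under conventional greenhouse care.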

[2] = tested on: ABUTH (Abutilon theophrasti); experiment: Preemergence herbicidal evaluation; format: in vivo, Medic.; settings: preemergence, rated 4-5 weeks after treatment
[3] = tested on: CYPSE (Cyperus serotinus); experiment: Flooded paddy, preemergence weed control; format: in vivo, Rottb.; settings: rated 3-4 weeks after treatment, 0-9 rating scale
Procedure, shortened: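 Herbicidal effect was scored visually on a 0–9 scale against an untreated control 3–4 weeks after treatment. Compounds were applied preemergence as 50/50 v/v aqueous/acetone mixtures into flood water (1.5–3 cm deep over silt loam), at roughly 0.0080 to 0.1250 kg/ha active ingredient.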

[4] = tested on: ABUTH (Abutilon theophrasti); experiment: Postemergence herbicidal evaluation; format: in vivo, Medic.
Procedure, shortened: (§2)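 Seedlings grown about two weeks in flats, sprayed, then kept under standard greenhouse care. Rated visually 4–5 weeks after treatment on a 0–9 scale (stand, vigour, malformation, size, chlorosis, overall appearance) relative to untreated control; repeat tests averaged.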

SETVI (Setaria viridis) [5] = experiment: Preemergence herbicidal evaluation; format: in vivo, (L.) Beau; settings: preemergence, rated 4-5 weeks after treatment
Procedure, shortened: as §1

[6] = tested on: ECHCG (Echinochloa crus-galli); experiment: Preemergence herbicidal evaluation; format: in vivo, (L.) Beau; settings: preemergence, rated 4-5 weeks after treatment
Procedure, shortened: as §1

[7] = tested on: MOOVA (Monochoria vaginalis); experiment: Flooded paddy, preemergence weed control; format: in vivo, Presl.; settings: rated 3-4 weeks after treatment, 0-9 rating scale
Procedure, shortened: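 Seeds or propagules were planted in the top 0.5 cm of silt loam soil and kept flooded 1.5–3 cm above the surface throughout, then held in the greenhouse. Injury was rated visually on a 0–9 scale against untreated controls, covering stand, vigor, malformation, size and chlorosis.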

[8] = tested on: GLXMAW (Soybean, Williams); experiment: Postemergence herbicidal evaluation; format: in vivo, Glycine max, (L.) Merr. cv Williams
Procedure, shortened: as §2

ORYSAT (Rice, Tebonnet) = experiment: Flooded paddy, post-transplant rice tolerance; format: in vivo, Oryza sativa, (L.) Tebonnet; settings: flooded paddy, post-transplant rice, rated 3-4 weeks after treatment, 0-9 rating scale
Procedure, shortened: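 Steps: transplant two ten-day-old seedlings into silt loam; flood to 1.5-3 cm above soil; apply herbicide post-transplant; maintain water on greenhouse benches; rate stand, vigor, malformation, size and chlorosis on a 0-9 visual scale versus control.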

[9] = tested on: TRZAWR (Wheat, Winter, cv Riband); experiment: Postemergence herbicidal evaluation; format: in vivo, Triticum aestivum
Procedure, shortened: as §2

GALAP (Galium aparine) [10] = experiment: Postemergence herbicidal evaluation; format: in vivo
Procedure, shortened: as §2

[11] = tested on: IPOHE (Ipomoea hederacea); experiment: Postemergence herbicidal evaluation; format: in vivo, (L.) Jacq.
Procedure, shortened: as §2

SETVI (Setaria viridis) [12] = experiment: Postemergence herbicidal evaluation; format: in vivo, (L.) Beau
Procedure, shortened: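 Seedlings grown about two weeks were sprayed with compound in 50/50 acetone/water containing 0.5% TWEEN 20, at about 0.0040 to 1.000 kg/ha via nozzle at 40 psi. Plants were kept under greenhouse conditions and visually rated on a 0-9 scale versus control four to five weeks after treatment; replicate tests averaged.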

ZEAMX (Corn, Field) = experiment: Preemergence herbicidal evaluation; format: in vivo, Zea mays, L.; settings: preemergence, rated 4-5 weeks after treatment
[13] = tested on: CHEAL (Chenopodium album); experiment: Preemergence herbicidal evaluation; format: in vivo, L.; settings: preemergence, rated 4-5 weeks after treatment
Procedure, shortened: as §1

[14] = tested on: CASOB (Cassia obtusifolia); experiment: Preemergence herbicidal evaluation; format: in vivo, L.; settings: preemergence, rated 4-5 weeks after treatment
Procedure, shortened: as §1

[15] = tested on: AMBEL (Ambrosia artemisifolia); experiment: Preemergence herbicidal evaluation; format: in vivo, L.; settings: preemergence, rated 4-5 weeks after treatment
Procedure, shortened: as §1

SMILES: Cc1ccc(-c2nsc3ccc(-n4c(=O)cc(C(F)(F)F)n(C)c4=O)cc23)s1 [Compound 21, 1-methyl-3-[3-(5-methyl-2-thienyl)-1,2-benzisothiazol-5-yl]-6-(trifluoromethyl)uracil]
- GALAP preemergence herbicidal rating (GALAP (Galium aparine) [1]; Rate 0.0620 kg/ha): 3.0
- GALAP preemergence herbicidal rating (GALAP (Galium aparine) [1]; Rate 0.1250 kg/ha): 2.0
- GALAP preemergence herbicidal rating (GALAP (Galium aparine) [1]; Rate 0.2500 kg/ha): 9.0
- ABUTH preemergence herbicidal rating ([2]; Rate 0.0620 kg/ha): 4.0
- ABUTH preemergence herbicidal rating ([2]; Rate 0.1250 kg/ha): 7.5
- ABUTH preemergence herbicidal rating ([2]; Rate 0.2500 kg/ha): 9.0
- herbicidal rating, CYPSE ([3]; rate 0.0080 kg/ha): 0.0
- herbicidal rating, CYPSE ([3]; rate 0.0320 kg/ha): 4.5
- herbicidal rating, CYPSE ([3]; rate 0.1250 kg/ha): 4.5
- Postemergence herbicidal rating, ABUTH ([4]; rate 0.0320 kg/ha): 9.0
- Postemergence herbicidal rating, ABUTH ([4]; rate 0.0620 kg/ha): 9.0
- Postemergence herbicidal rating, ABUTH ([4]; rate 0.1250 kg/ha): 9.0
- SETVI preemergence herbicidal rating (SETVI (Setaria viridis) [5]; Rate 0.0620 kg/ha): 6.5
- SETVI preemergence herbicidal rating (SETVI (Setaria viridis) [5]; Rate 0.1250 kg/ha): 9.0
- SETVI preemergence herbicidal rating (SETVI (Setaria viridis) [5]; Rate 0.2500 kg/ha): 9.0
- ECHCG preemergence herbicidal rating ([6]; Rate 0.0620 kg/ha): 0.0
- ECHCG preemergence herbicidal rating ([6]; Rate 0.1250 kg/ha): 5.0
- ECHCG preemergence herbicidal rating ([6]; Rate 0.2500 kg/ha): 6.5
- herbicidal rating, MOOVA ([7]; rate 0.0080 kg/ha): 7.0
- herbicidal rating, MOOVA ([7]; rate 0.0320 kg/ha): 9.0
- herbicidal rating, MOOVA ([7]; rate 0.1250 kg/ha): 9.0
- Postemergence herbicidal rating, GLXMAW ([8]; rate 0.0320 kg/ha): 5.5
- Postemergence herbicidal rating, GLXMAW ([8]; rate 0.0620 kg/ha): 6.0
- Postemergence herbicidal rating, GLXMAW ([8]; rate 0.1250 kg/ha): 6.0
- herbicidal rating, ORYSAT (rice tolerance) (ORYSAT (Rice, Tebonnet); rate 0.0080 kg/ha): 0.0
- herbicidal rating, ORYSAT (rice tolerance) (ORYSAT (Rice, Tebonnet); rate 0.0320 kg/ha): 2.0
- herbicidal rating, ORYSAT (rice tolerance) (ORYSAT (Rice, Tebonnet); rate 0.1250 kg/ha): 3.0
- Postemergence herbicidal rating, TRZAWR ([9]; rate 0.0320 kg/ha): 4.0
- Postemergence herbicidal rating, TRZAWR ([9]; rate 0.0620 kg/ha): 4.5
- Postemergence herbicidal rating, TRZAWR ([9]; rate 0.1250 kg/ha): 4.5
- Postemergence herbicidal rating, GALAP (GALAP (Galium aparine) [10]; rate 0.0320 kg/ha): 1.0
- Postemergence herbicidal rating, GALAP (GALAP (Galium aparine) [10]; rate 0.0620 kg/ha): 4.0
- Postemergence herbicidal rating, GALAP (GALAP (Galium aparine) [10]; rate 0.1250 kg/ha): 9.0
- Postemergence herbicidal rating, IPOHE ([11]; rate 0.0320 kg/ha): 9.0
- Postemergence herbicidal rating, IPOHE ([11]; rate 0.0620 kg/ha): 9.0
- Postemergence herbicidal rating, IPOHE ([11]; rate 0.1250 kg/ha): 9.0
- Postemergence herbicidal rating, SETVI (SETVI (Setaria viridis) [12]; rate 0.0320 kg/ha): 2.0
- Postemergence herbicidal rating, SETVI (SETVI (Setaria viridis) [12]; rate 0.0620 kg/ha): 7.0
- Postemergence herbicidal rating, SETVI (SETVI (Setaria viridis) [12]; rate 0.1250 kg/ha): 9.0
- ZEAMX preemergence herbicidal rating (ZEAMX (Corn, Field); Rate 0.0620 kg/ha): 1.0
- ZEAMX preemergence herbicidal rating (ZEAMX (Corn, Field); Rate 0.1250 kg/ha): 3.5
- ZEAMX preemergence herbicidal rating (ZEAMX (Corn, Field); Rate 0.2500 kg/ha): 4.5
- CHEAL preemergence herbicidal rating ([13]; Rate 0.0620 kg/ha): 9.0
- CHEAL preemergence herbicidal rating ([13]; Rate 0.1250 kg/ha): 9.0
- CHEAL preemergence herbicidal rating ([13]; Rate 0.2500 kg/ha): 9.0
- CASOB preemergence herbicidal rating ([14]; Rate 0.0620 kg/ha): 0.0
- CASOB preemergence herbicidal rating ([14]; Rate 0.1250 kg/ha): 0.5
- CASOB preemergence herbicidal rating ([14]; Rate 0.2500 kg/ha): 2.0
- AMBEL preemergence herbicidal rating ([15]; Rate 0.0620 kg/ha): 2.0
- AMBEL preemergence herbicidal rating ([15]; Rate 0.1250 kg/ha): 5.5
- AMBEL preemergence herbicidal rating ([15]; Rate 0.2500 kg/ha): 7.5

SMILES: COC(=O)COc1ccsc1-c1nsc2ccc(-n3c(=O)cc(C(F)(F)F)n(C)c3=O)cc12 [Compound 22, Methyl [(2-[5-[3,6-dihydro-3-methyl-2,6-dioxo-4-(trifluoromethyl)-1(2H)-pyrimidinyl]-1,2-benzisothiazol-3-yl]-3-thienyl]oxy]acetate]
- GALAP preemergence herbicidal rating (GALAP (Galium aparine) [1]; Rate 0.0620 kg/ha): 0.0
- GALAP preemergence herbicidal rating (GALAP (Galium aparine) [1]; Rate 0.1250 kg/ha): 0.0
- GALAP preemergence herbicidal rating (GALAP (Galium aparine) [1]; Rate 0.2500 kg/ha): 1.0
- ABUTH preemergence herbicidal rating ([2]; Rate 0.0620 kg/ha): 1.0
- ABUTH preemergence herbicidal rating ([2]; Rate 0.1250 kg/ha): 4.0
- ABUTH preemergence herbicidal rating ([2]; Rate 0.2500 kg/ha): 5.0
- herbicidal rating, CYPSE ([3]; rate 0.0320 kg/ha): 0.0
- herbicidal rating, CYPSE ([3]; rate 0.1250 kg/ha): 0.0
- Postemergence herbicidal rating, ABUTH ([4]; rate 0.0320 kg/ha): 5.0
- Postemergence herbicidal rating, ABUTH ([4]; rate 0.0620 kg/ha): 4.0
- Postemergence herbicidal rating, ABUTH ([4]; rate 0.1250 kg/ha): 6.0
- SETVI preemergence herbicidal rating (SETVI (Setaria viridis) [5]; Rate 0.0620 kg/ha): 0.0
- SETVI preemergence herbicidal rating (SETVI (Setaria viridis) [5]; Rate 0.1250 kg/ha): 1.0
- SETVI preemergence herbicidal rating (SETVI (Setaria viridis) [5]; Rate 0.2500 kg/ha): 3.0
- ECHCG preemergence herbicidal rating ([6]; Rate 0.0620 kg/ha): 0.0
- ECHCG preemergence herbicidal rating ([6]; Rate 0.1250 kg/ha): 0.0
- ECHCG preemergence herbicidal rating ([6]; Rate 0.2500 kg/ha): 1.0
- herbicidal rating, MOOVA ([7]; rate 0.0080 kg/ha): 0.0
- herbicidal rating, MOOVA ([7]; rate 0.0320 kg/ha): 4.5
- herbicidal rating, MOOVA ([7]; rate 0.1250 kg/ha): 4.5
- Postemergence herbicidal rating, GLXMAW ([8]; rate 0.0320 kg/ha): 5.5
- Postemergence herbicidal rating, GLXMAW ([8]; rate 0.0620 kg/ha): 5.5
- Postemergence herbicidal rating, GLXMAW ([8]; rate 0.1250 kg/ha): 6.5
- herbicidal rating, ORYSAT (rice tolerance) (ORYSAT (Rice, Tebonnet); rate 0.0080 kg/ha): 0.0
- herbicidal rating, ORYSAT (rice tolerance) (ORYSAT (Rice, Tebonnet); rate 0.0320 kg/ha): 2.0
- herbicidal rating, ORYSAT (rice tolerance) (ORYSAT (Rice, Tebonnet); rate 0.1250 kg/ha): 2.5
- Postemergence herbicidal rating, TRZAWR ([9]; rate 0.0320 kg/ha): 2.5
- Postemergence herbicidal rating, TRZAWR ([9]; rate 0.0620 kg/ha): 3.5
- Postemergence herbicidal rating, TRZAWR ([9]; rate 0.1250 kg/ha): 4.5
- Postemergence herbicidal rating, GALAP (GALAP (Galium aparine) [10]; rate 0.0320 kg/ha): 0.0
- Postemergence herbicidal rating, GALAP (GALAP (Galium aparine) [10]; rate 0.0620 kg/ha): 0.0
- Postemergence herbicidal rating, GALAP (GALAP (Galium aparine) [10]; rate 0.1250 kg/ha): 1.0
- Postemergence herbicidal rating, IPOHE ([11]; rate 0.0320 kg/ha): 4.0
- Postemergence herbicidal rating, IPOHE ([11]; rate 0.0620 kg/ha): 4.0
- Postemergence herbicidal rating, IPOHE ([11]; rate 0.1250 kg/ha): 6.0
- Postemergence herbicidal rating, SETVI (SETVI (Setaria viridis) [12]; rate 0.0320 kg/ha): 3.0
- Postemergence herbicidal rating, SETVI (SETVI (Setaria viridis) [12]; rate 0.0620 kg/ha): 2.0
- Postemergence herbicidal rating, SETVI (SETVI (Setaria viridis) [12]; rate 0.1250 kg/ha): 9.0
- ZEAMX preemergence herbicidal rating (ZEAMX (Corn, Field); Rate 0.0620 kg/ha): 0.0
- ZEAMX preemergence herbicidal rating (ZEAMX (Corn, Field); Rate 0.1250 kg/ha): 0.0
- ZEAMX preemergence herbicidal rating (ZEAMX (Corn, Field); Rate 0.2500 kg/ha): 1.0
- CHEAL preemergence herbicidal rating ([13]; Rate 0.0620 kg/ha): 0.0
- CHEAL preemergence herbicidal rating ([13]; Rate 0.1250 kg/ha): 3.0
- CHEAL preemergence herbicidal rating ([13]; Rate 0.2500 kg/ha): 9.0
- CASOB preemergence herbicidal rating ([14]; Rate 0.0620 kg/ha): 0.0
- CASOB preemergence herbicidal rating ([14]; Rate 0.1250 kg/ha): 0.0
- CASOB preemergence herbicidal rating ([14]; Rate 0.2500 kg/ha): 1.0
- AMBEL preemergence herbicidal rating ([15]; Rate 0.0620 kg/ha): 0.0
- AMBEL preemergence herbicidal rating ([15]; Rate 0.1250 kg/ha): 0.0
- AMBEL preemergence herbicidal rating ([15]; Rate 0.2500 kg/ha): 2.0
